Reference: patent US8895624B2, “Treatment of osteoporosis” (Haoma Medica Ltd., priority 2009, dated 2014)

What was measured:
[1] = system: cultured cell lines derived from skin and liver; experiment: Cell toxicity in cultured cell lines derived from skin and liver; type: cell-based
[2] = system: osteoblast-like MG63 cells; experiment: Viability of MG63 cells by uptake of 3H labelled Thymine in the formation of DNA; type: cell-based, human; conditions: concentrations 10^−8M to 10^−5M, compared with control samples
[3] = system: bone loss induced by oviarectomy; experiment: Oviarectomized (oestrogen deficient) mouse model of osteoporosis, tibial μCT; type: in vivo, C57Black mice; conditions: OVx mice, 15 μg/mouse/day intraperitoneally, 5 weeks
Excerpt: The most widely accepted animal model of osteoporosis is the oestrogen deficient rodent, with this model the effect of the present invention has been tested in vivo. All procedures were done under Home Office licence and full local ethical requirements. C57Black mice were randomly assigned to receive total bi-lateral oviarectomy or sham operation. The oviarectomized animals were randomly assigned for treatment or to an untreated control group. At operation eight animals were in each group. • The mice were housed under standard animal house conditions with 12 hour light dark cycles in temperature and humidity controlled conditions for 5 weeks. The Sham and control oviarectomized mice received 10% ethanol in saline vehicle injections intraperitoneally once per day. The NaQuinate treated mice received a single injection (15 μg/mouse/day) administered in 10% ethanol in saline injections intraperitoneally. All mice received the same volume of test sample and this complied with Home Office regulations. • After 5 weeks treatment the animals were sacrificed by a Schedule 1 method and the tibiae removed for X-ray micro-Computer Tomography (μCT) imaging analyses.

[4] = system: bone loss in neurectomized limbs; experiment: Disuse osteoporosis induced by sciatic neurectomy, tibial μCT; type: in vivo, mice
Protocol: Disuse osteoporosis was induced by right side sciatic neurectomy (SN). Mice were anaesthetized with oxygen and halothane and SN was achieved by resecting a 3-4 mm segment of the sciatic nerve posterior to the hip joint. On the 4th day after surgery mice were treated with either; control or NaQuinate for 5 days/week for 2 weeks. The tibias of both limbs were analysed by micro computerized tomography (μCT).

[5] = system: interleukin-6 release from MG63 osteoblast-like cells; experiment: Inhibition of E. coli LPS-stimulated interleukin-6 release from cultured MG63 osteoblast-like cells; type: cell-based, human; conditions: E. coli LPS 25 ng/ml
Excerpt: 1. There are numerous factors that regulate bone physiology. Targeting the agents that induce bone resorption by recruiting/activating the cells that induce bone loss (the osteoclasts) has had limited exposure/efficacy. Most current therapies target the osteoclasts once they have been recruited or activated. A family of locally (bone) produced proteins called cytokines can induce a range of stimuli that can affect osteoclast number/activity. One of these cytokines is called interleukin-6 (IL-6). IL-6 is released by many cell types, including the bone forming cells (osteoblasts), following challenge from a range of agonists. These agonists can be physiological (1,25(OH)2 vitamin D3, interleukin-1β) or pathophysiological (interleukin-1β; bacterial endotoxin). • In vitro studies focussed on an immortalised osteoblast-like cell line called MG63 that was derived from a human osteosarcoma (bone cancer). These cells were cultured and screened for their ability to synthesize and release a range of cytokines including IL-6. Due to the well described activities of IL-6 induced bone loss this cytokine was focussed upon (see Manolagas S. C., Ann N Y Acad. Sci. 1998 May 1; 840:194-204). […] IL-6 can be measured by commercial immunoassays, for example, the QuantiGlo IL-6 Immunoassay from R&D systems.

[6] = neurectomized limbs, treated 5 days/week for 2 weeks
[7] = normal (non-neurectomized) bone

SMILES | cell toxicity [1] | DNA synthesis (3H-Thymine incorporation) of MG63 cells [2] | percentage bone content (bone volume) in the trabecular compartment [3] | trabecular number, tibial trabecular compartment [3] | bone loss assessed by % bone volume [4, 6] | bone loss assessed by trabecular number [4, 6] | normal bone trabecular number [4, 7] | normal bone volume [4, 7] | inhibition of LPS-stimulated interleukin-6 release (in words) [5]
CC1=C(C/C=C(\C)CCC(=O)O)C(=O)c2ccccc2C1=O [NaQuinate (VIII), (4E)-6-(1,4-dihydro-2-methyl-1,4-dioxonaphthalen-3-yl)-4-methylhex-4-enoic acid] | lack of cell toxicity | continue normal DNA synthesis under all concentrations tested | completely attenuated the bone loss | completely attenuated the bone loss | inhibits bone loss in neurectomized limbs | inhibits bone loss in neurectomized limbs | does not alter normal bone trabecular number | does not alter normal bone volume | 
CC1=C(C/C=C(\C)C(=O)O)C(=O)c2ccccc2C1=O [KCAT-5C (XIV), (2E)-4-(1,4-dihydro-2-methyl-1,4-dioxonaphthalen-3-yl)-2-methylbut-2-enoic acid] |  |  |  |  |  |  |  |  | only active inhibiting Interleukin-6 from cultured MG63 osteoblast-like cells at very high concentrations (10^−5 M)
CC1=C(CCCCCCCC(=O)O)C(=O)c2ccccc2C1=O [XV, 8-(1,4-dihydro-2-methyl-1,4-dioxonaphthalen-3-yl)octanoic acid] |  |  |  |  |  |  |  |  | completely inactive
